Counter-ions that a name gives are not always drawn.
Experiments:
[1] = test system: NMDA-induced neurotoxicities; assay: Rotarod motor equilibrium performance with icv NMDA (Example 2)
Protocol: Their neuroprotective effects were evaluated after pretreatment for fourteen days or one day prior to the intracerebroventricular injection (icy) of 8 mM NMDA (3 μl).
One day before the experiment, mice were tested through ten consecutive sessions to stay on the rod and reach the cut off time of 180 s. One day after injection, mice were tested again. The retention time, defined as total time (sec) remaining on the rod, was recorded at each session.

[2] = test system: intrasynaptosomal Ca2+ concentration; assay: Intrasynaptosomal Ca2+ concentration, Fluo-3/AM (Example 1); format: in vivo, mice; conditions: striatum, 4 hr after excitotoxic injury; control group 145.62%±7.16%; n=10
Protocol: Intrasynaptosomal Ca^2+ concentration [Ca^2+]i was determined with the calcium-sensitive fluorochrome fluo-3-acetoxymethyl (Fluo-3/AM) in the presence of acetoxymethyl ester. First, 100 L of P2 synaptosomes was prepared as described above, and 2.5 mM Fluo-3/AM (Sigma, St. Louis, Mo.) was added to each well (final reaction volume of 250 L) and incubated at 37° C. for 30 min. Fluorescence was measured in a Microplate Fluorometer (Labsystems, Helsinki, Finland) with an excitation wavelength of 490 nm and an emission wavelength of 526 nm.

NO levels = NO levels of brain synaptosomes (Example 2); format: in vivo, mice; conditions: FIG. 11E
[3] = test system: NMDA-induced seizures (icv NMDA); assay: NMDA-induced seizure score (Example 2); format: in vivo, mice; conditions: pretreatment before icv 8 mM NMDA (3 μl); control vehicle 90±10%
From the text: In NMDA-treated mice, seizures developed through a sequence of paroxysmal scratching, hypermotility and aircling, tonic-clonic convulsions and, occasionally, death. The following semi-quantitative scale was used for the examination of excitotoxic severity: 0, no response; 1, excessive grooming plus paroxysmal scratching; 2, mild hypermotility; 3, extensive hypermotility and circling; 4, forepaw clonus plus tail hypertonus; 5, generalized tonic-clonic convulsions; 6, “status epilepticus” and death (Marganella et al. 2005. Comparative effects of levobupivacaine and racemic bupivacaine on excitotoxic neuronal death in culture and N-methyl-D-aspartate-induced seizures in mice. Eur. J. Pharmacol. 518: 111-115). The latency (in sec) for generalized (clonic or tonic-clonic convulsions) seizures was also determined.

[4] = test system: mitochondrial membrane potential (ΔΨm); assay: Mitochondrial membrane potential, DiOC6(3) (Example 1); format: in vivo, mice; conditions: striatum, 24 hr after excitotoxic injury; control group 85.06%±2.58%
Protocol: (§1) Twenty-four hours after excitotoxic injury, mice were sacrificed by rapid decapitation under anesthesia. The lesioned (left) hemisphere was dissected into striatal and nonstriatal areas. The contralateral hemisphere was then dissected into the corresponding parts. Synaptosomes were prepared essentially as described previously (Andersen J M, Myhre O, Fonnum F. 2003. Discussion of the role of the extracellular signal-regulated kinase-phospholipase A2 pathway in production of reactive oxygen species in Alzheimer's disease. Neurochem Res 28: 319-326.). Briefly, different regions of the brain were removed and placed on ice. […]
Mitochondrial membrane potential (ΔΨm) was measured using the fluorescent dye 3,3-diexyloxacarbocyanine iodide, DiOC6(3) (Chen Y C, Lin-Shiau S Y, Lin J K, 1998b. Involvement of reactive oxygen species and caspase 3 activation in arsenite-induced apoptosis. J Cell Physiol 177: 324-333.). Synaptosomes were prepared as described above and diluted 1:40 in Tris buffer, followed by the addition of DiOC6(3) to a final concentration of 1.5 M. After 20 min of incubation at 37° C., fluorescence was measured in a Microplate Fluorometer (Labsystems, Helsinki, Finland) with an excitation wavelength of 484 nm and an emission wavelength of 501 nm.

[5] = test system: excitotoxic injury (NMDA injected into the left striatum); assay: Locomotor activity test before and after intrastriatal NMDA excitotoxic injury (Example 1); format: in vivo; conditions: mice, oral gavage 2 days before intrastriatal NMDA; tested 24 hr after injury; n=8
From the text: Memantine hydrochloride (>98.5% white crystalline powder) was supplied by Lotus Pharmaceutical Co., Ltd. (Taipei, Taiwan). Tea polyphenols were isolated from Longjing green tea with the following composition: epigallocatechin, 14.69%; catechin, 1.13%; epigallocatechin-3-gallate, 41.34%; epicatechin, 5.47%; gallocatechin-3-gallate, 5.16%; epicatechin-3 gallate, 12.54%; coffein, 0.95%; and other catechin derivatives, 18% (Yeh C W, Chen W J, Chiang C T, Lin-Shiau S Y, Lin J K. 2003. Suppression of fatty acid synthase in MCF-7 breast cancer cells by tea and tea polyphenols: a possible mechanism for their hypolipidemic effects. Pharmacogenomics J 3: 267-276.). Memantine (10 mg/kg/day), tea polyphenol (60 mg/kg/day), or a combination (memantine 5 mg/kg/day plus tea polyphenol 30 mg/kg/day) was dissolved in distilled water and administered by oral gavage for 2 consecutive days before causing excitotoxic injury. The experimental design had 5 groups: the sham operation group, the control group, the memantine group, the tea polyphenol group, and the tea polyphenol plus memantine group.
Weight and rectal temperature of each mouse were recorded before the surgical procedure. Anesthesia was induced with 5% chloral hydrate (400 mg/kg). […] Throughout the experimental procedure, mouse rectal temperature was monitored and maintained at 37.0° C.±0.5° C. […]

[6] = test system: synaptosomal reactive oxygen species; assay: Synaptosomal reactive oxygen species formation, DCFH-DA (Example 1); format: in vivo, mice; conditions: mouse excitotoxic injury
Protocol: as §1, with “ice. Specimens with the same areas and treatment conditions were pooled (n=2) and subjected to homogenization on ice in 10 volumes of 0.32M sucrose. Homogenates were centrifuged at 4° C. for 10 min at 600 g.” for “ice.”
Dichlorofluorescein-diacetate (DCFH-DA), a nonfluorescent cell-permeable compound, diffuses passively across cell membranes. […] Plates were incubated with shaking at 37° C. for 30 min before measurement of fluorescence using a Microplate Fluorometer (Labsystems, Helsinki, Finland) with an excitation wavelength of 488 nm, an emission wavelength of 525 nm, and a band width of 5 nm. […] Synaptosomal protein concentration was determined with Pierce BCA reagents according to instructions provided. […]

[7] = test system: NMDA-decreased locomotor activities; assay: Open field locomotor activity test with icv NMDA (Example 2)
Protocol: In this example, the combination of TP with M (memantine) in three different dosage ratios of 6:1, 3:1, and 10:1 respectively; these are TPM6 (TP 30 mg/kg/day:M 5 mg/kg/day), TPM3 (TP 15 mg/kg/day:M 5 mg/kg/day) and TPM10 (TP 30 mg/kg/day:M 3 mg/kg/day), respectively.
A large colorless rectangular box with a metallic grid floor was used (70-cm wide, 90-cm long and 60-cm high). The photobeam activity monitors (TruScan coulbourn instruments) was used for measuring real-time X-Y activity track-type plots. Overall pulses were measured in an electromechanical counter as a gross measure of activity and recorded by a PC. Each mouse was allowed to move freely for 5 min but data were not scored, and then the number of squares crossed and the plots of tracking were counted during a period of 30 min for all experiments and quantification of data was by TruScan99 software.

Na+, K+-ATPase = Na+, K+-ATPase activity of synaptosomes after excitotoxic injury (Example 1); format: in vivo, mice; conditions: striatum synaptosomes 24 hr after excitotoxic injury
Protocol: as §1
(§2) ATPase activity was determined by measuring the amount of inorganic phosphate (Pi) released from the substrate ATP according to a previously described colorimetric method. The method permitted the quantification of Na^+, K^+-ATPase and Mg^2+-ATPase activity in the same sample. […] Optical density at 630 nm was determined by an ELISA reader (Dynatech MR-7000). The absorbance values obtained were converted to activity values by linear regression using a standard curve for sodium monobasic phosphate included in the assay at various concentrations. […] Protein concentration was determined colorimetrically with a commercial bicinchoninic acid kit (Pierce, Rockford, Ill.).

[8] = test system: NMDA-induced neurotoxicities; assay: Elevated plus maze with icv NMDA (Example 2)
Protocol: In this example, the combination of TP with M (memantine) in three different dosage ratios of 6:1, 3:1, and 10:1 respectively; these are TPM6 (TP 30 mg/kg/day:M 5 mg/kg/day), TPM3 (TP 15 mg/kg/day:M 5 mg/kg/day) and TPM10 (TP 30 mg/kg/day:M 3 mg/kg/day), respectively. Their neuroprotective effects were evaluated after pretreatment for fourteen days or one day prior to the intracerebroventricular injection (icy) of 8 mM NMDA (3 μl).
For testing, mice were individually placed in the center of the maze facing a closed arm and allowed 5 min of free exploration. The number of entries into open arms, the number of entries into closed arms, and the total time spent in the open arms and total time spent in the closed arms were measured. Entry was defined as all four paws in the arms.

Mg2+-ATPase = Mg2+-ATPase activity of synaptosomes after excitotoxic injury (Example 1); format: in vivo, mice; conditions: striatum synaptosomes 24 hr after excitotoxic injury
Protocol: as §1, §2

[9] = test system: mitochondrial succinate reductase; assay: Mitochondrial reductase activity, MTT test (Example 1); format: in vivo, mice; conditions: striatum, 24 hr after excitotoxic injury; control group 74.52%±4.86%
Protocol: Twenty-four hours after excitotoxic injury, mice were sacrificed by rapid decapitation under anesthesia. The lesioned (left) hemisphere was dissected into striatal and nonstriatal areas. The contralateral hemisphere was then dissected into the corresponding parts. Synaptosomes were prepared essentially as described previously (Andersen J M, Myhre O, Fonnum F. 2003. Discussion of the role of the extracellular signal-regulated kinase-phospholipase A2 pathway in production of reactive oxygen species in Alzheimer's disease. Neurochem Res 28: 319-326.). Briefly, different regions of the brain were removed and placed on ice. Specimens with the same areas and treatment conditions were pooled (n=2) and subjected to homogenization on ice in 10 volumes of 0.32M sucrose. Homogenates were centrifuged at 4° C. for 10 min at 600 g. The supernatant was then diluted 1:1 with 1.3M sucrose to obtain a suspension with a final sucrose concentration of 0.8M. This suspension was subjected to centrifugation at 20,000 g for 30 min at 4° C., yielding a myelin-rich supernatant and a pellet (P2) consisting of synaptosomes free of myelin. […]
Mitochondrial metabolic function was assessed by the conversion of the dye methylthiazoletetrazolium (MTT) to purple formazan. […] The formation of formazan was quantitated spectrophotometrically at 570 nm using a Microplate Reader.

locomotor activities in the open field, drug alone ([7]; consecutive 14 days, before NMDA, FIG. 7): increased locomotor activities
decrease in jump activity, drug alone ([7]; pretreatment alone for consecutive 14 days, FIG. 8B): TPM6>M>TPM10
SMILES: CC12CC3CC(C)(C1)CC(N)(C3)C2 [memantine, Memantine hydrochloride]
reversal of disturbance in rotarod motor equilibrium function induced by NMDA ([1]; drug one day before and consecutive 14 days following NMDA, FIG. 10D): reversed
motor equilibrium function, drug alone ([1]; prolonged use alone, FIG. 8D): reduced the motor equilibrium function
intrasynaptosomal Ca2+ concentration [Ca2+]i [2]: 123.04%±6.70%
NO levels of brain synaptosomes increased by NMDA (NO levels): decreased
attenuations of NMDA-induced seizure scores in percentage [3]: 60±10%
mitochondrial membrane potential (ΔΨm) [4]: 94.23%±4.19%
improvement of impaired locomotor activity after excitotoxic injury [5]: substantial but nonsignificant improvement
effect on increased synaptosomal ROS production [6]: does not have any significant effects
reversal of decreased locomotor activities induced by NMDA ([7]; drug one day before and consecutive 14 days following NMDA, FIG. 10A): partially reversed
reversal of decrease in jump activity induced by NMDA ([7]; drug one day before and consecutive 14 days following NMDA, FIG. 10B): partially reversed
order of neuroprotective potencies against NMDA-decreased locomotor activities ([7]; pretreatment 14 days, FIG. 8A): TPM10>TPM6>TPM3>M
order of neuroprotective potencies against the decreased jump exploratory effect of NMDA ([7]; pretreatment 14 days, FIG. 8B): M>TPM6>TPM3>TPM10
NMDA-decreased locomotor activities, prevention by pretreatment ([7]; pretreatment 14 days, icv 3 μl of 8 mM NMDA): prevented
attenuation of decreased Na+, K+-ATPase activity (Na+, K+-ATPase): only minimally attenuated
attenuation of increased retention time in the opened plus maze by NMDA ([8]; drug one day before and consecutive 14 days following NMDA, FIG. 10C): followed in order by TPM6, TPM10 and then M
retention time in the open field of elevated plus maze, drug alone ([8]; prolonged use alone, FIG. 8C): prominently increased retention time
attenuation of decreased Mg2+-ATPase activity (Mg2+-ATPase): only minimally attenuated
mitochondrial reductase activity (MTT test) [9]: 93.53%±8.53%

Source: US9011945B2, “Composition and method for neuroprotection against excitotoxic injury” (priority 2008, dated 2015)
